Marks after values point to notes of the source that are not given here. Numbered stars: 1 amine (or outer) side, 2 acyl side, 3 side chain; on linkers, the order of the positions; unused ones are H or OH. Side chains are listed from the residue outwards. Ends that are not written are not given here. Peptide text beside a SMILES is read from it. * marks the point of attachment. γGlu = O=C(O)[C@H](CCC(=O)[*:2])N[*:1]; Palmitoyl = CCCCCCCCCCCCCCCC(=O)*
What was measured:
C57BL/6 mice = assay: Food intake in fasted mice after SC injection; assay type: in vivo; settings: 5 mg/kg SC, 45 min after injection
In short: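 Overnight-fasted animals (food removed 17 h before dosing, water available) in individual cages got saline, PrRP or lipidated PrRP analogs SC at 1-10 mg/kg.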

Wistar rats = assay: Food intake in fasted rats after SC injection; assay type: in vivo; settings: overnight fasted rats, compared to controls given vehicle
Protocol: (§1) NMRI mice, C57BL/6 mice, and Wistar rats (AnLab, Prague, Czech Republic) were housed in a temperature of 23° C. and a daily cycle of 12 h light and dark (light from 6:00). They were given ad libitum water and a standard chow diet that contained 25, 9 and 66% of calories of protein, fat and carbohydrate respectively. Energy content of the feed was 3.4 kcal/g (St-1, Mlýn Kocanda, Czech Republic). Db/db mice and their controls (C57BL/6 background) were obtained from Taconic (Denmark), housed under the same conditions as described above, and fed by Altromin (Taconic, Denmark). ZDF-Lepr^fa/Crl, diabetic fa/fa male rats were obtained from Charles River (France), housed under same conditions as described above, and fed with a Purina 5008 diet (IPS Product Supplies Limited, UK). All experiments followed the ethical guidelines for animal experiments and the law of the Czech Republic Nr. 246/1992.
In experiments with C57BL/6 mice or Wistar rats, food intake was measured with overnight fasted animals in individual cages. Food was withdrawn 17 hours prior to injection of lipidated analog of prolactin releasing peptide (PrRP); free access to water was maintained. The administration of either saline, PrRP, or lipidated analogs was performed by SC injection at doses of 1-10 mg/kg (which corresponded to a volume of 0.2 ml/mouse and 0.1 ml/100 g weight of rat). Fifteen minutes after the lipidated analog of prolactin releasing peptide (PrRP) administration, the mice were given pre-weighed food. The food was then weighed every 30 minutes for 5-10 hours. The administration of each dose was performed at least twice, and each group of mice consisted of at least 6 mice.

ZDF diabetic rats = assay: 21 days repeated administration in diabetic ZDF rats (food intake, OGTT, metabolic parameters); assay type: in vivo; settings: for Cumulative food intake Day 1 / Cumulative food intake Day 1-7 / Cumulative food intake Day 1-14 / Cumulative food intake Day 1-21 / Cholesterol / Insulin / Leptin: ZDF rats
Protocol: (§2) Rats were subjected to a 21-day food intake experiment. ZDF rats were IP injected with either phosphate-buffered saline pH6 (control) or compound 43 or 52 at a dose of 1 and 5 mg/kg (n=8), twice a day for 21 days. After 21 days of treatment, rats were fasted overnight and OGTT was performed. After initial blood glucose measurement, 2 g/kg glucose solution was administered by oral gavage. Blood glucose was then measured at 15, 30, 60, 90, 120 and 180 min.
as §1
The ZDF rats were treated with vehicle or analogs 43 and 52 (1 and 5 mg/kg IP) dissolved in phosphate buffered saline, pH 6, twice daily for 21 days and sacrificed on day 22. Food intake was measured daily up to day 22. Leptin, insulin, cholesterol and HbA1c levels were measured on day 21. Glucose tolerance test (OGTT) was also performed on day 21.
as §2, with “min. […] The statistical significance, denoted by the asterisk (*), was *P<0.05.” for “min.”

[1] = biological target: T1, human PrRP receptor GPR10 (Homo sapiens, UniProt P49683); assay: Competitive binding in CHO cells transfected with human GPR10 (human 125I-PrRP31)
T1 construct: host or cells: CHO cells
T1 sequence (P49683 1-370): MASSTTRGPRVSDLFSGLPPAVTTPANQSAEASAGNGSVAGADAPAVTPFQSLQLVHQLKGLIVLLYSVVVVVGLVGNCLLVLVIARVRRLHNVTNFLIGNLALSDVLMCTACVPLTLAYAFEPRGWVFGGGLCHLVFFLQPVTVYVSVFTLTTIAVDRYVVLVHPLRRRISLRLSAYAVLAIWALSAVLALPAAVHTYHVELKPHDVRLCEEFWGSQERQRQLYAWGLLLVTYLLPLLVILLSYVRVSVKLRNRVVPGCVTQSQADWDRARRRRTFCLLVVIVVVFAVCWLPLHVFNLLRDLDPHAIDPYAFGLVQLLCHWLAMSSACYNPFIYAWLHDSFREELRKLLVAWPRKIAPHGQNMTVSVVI
In short: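 GPR10-transfected CHO cells (40-80 thousand/well) incubated 60 min at room temperature with 5×10^-11 mol·l^-1 human 125I-PrRP31 and unlabeled analog at 10^-11 to 10^-4 mol·l^-1 in Tris binding buffer pH 7.4. Cells solubilized in 0.1 mol/l NaOH, γ-counted; one-site nonlinear regression fit.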

rat PrRP receptor = biological target: T2, rat PrRP receptor (Rattus norvegicus, UniProt Q64121); assay: Competitive binding in RC-4B/C rat pituitary cells (125I-rat PrRP31)
T2 construct: host or cells: RC-4B/C rat pituitary cell line
T2 sequence (Q64121 1-370): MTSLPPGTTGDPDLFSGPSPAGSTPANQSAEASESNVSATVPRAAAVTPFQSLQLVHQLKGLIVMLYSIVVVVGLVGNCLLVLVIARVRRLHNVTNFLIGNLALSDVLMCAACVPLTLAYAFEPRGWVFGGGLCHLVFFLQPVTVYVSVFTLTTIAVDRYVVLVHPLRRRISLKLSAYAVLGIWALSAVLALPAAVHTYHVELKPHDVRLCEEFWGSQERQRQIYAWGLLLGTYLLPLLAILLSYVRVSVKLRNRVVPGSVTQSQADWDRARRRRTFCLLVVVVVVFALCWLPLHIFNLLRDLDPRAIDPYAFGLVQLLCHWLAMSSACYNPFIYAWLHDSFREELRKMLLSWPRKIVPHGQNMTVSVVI
In short: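 Intact rat pituitary RC-4B/C cells incubated 60 min at room temperature with […] rat 125I-PrRP31 and unlabeled analog (10^−11 to 10^−4 mol·l^−1) in HEPES pH 7.4 buffer. Cell-bound radioactivity γ-counted after NaOH lysis; one-site competition fit.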

[2] = test system: MAPK/ERK1/2 signaling pathway; settings: positive control; cited from earlier work

Compound: CCCCCCCCCCCCCCCC(=O)N[C@@H](CCC(=O)NCCCC[C@H](NC(=O)[C@@H](NC(=O)[C@H](CCC(=O)O)NC(=O)[C@H](CCSC)NC(=O)[C@H](CO)NC(=O)[C@H](Cc1c[nH]cn1)NC(=O)[C@H](CCCNC(=N)N)NC(=O)[C@H](Cc1c[nH]cn1)NC(=O)[C@@H](NC(=O)[C@H](CCCNC(=N)N)NC(=O)[C@@H](N)CO)[C@@H](C)O)[C@@H](C)CC)C(=O)N[C@H](C(=O)N1CCC[C@H]1C(=O)N[C@@H](CC(=O)O)C(=O)N[C@H](C(=O)N[C@@H](CC(N)=O)C(=O)N1CCC[C@H]1C(=O)N[C@@H](C)C(=O)N[C@@H](Cc1c[nH]c2ccccc12)C(=O)N[C@@H](Cc1ccc(O)cc1)C(=O)N[C@@H](C)C(=O)N[C@@H](CO)C(=O)N[C@@H](CCCNC(=N)N)C(=O)NCC(=O)N[C@H](C(=O)N[C@@H](CCCNC(=N)N)C(=O)N1CCC[C@H]1C(=O)N[C@H](C(=O)NCC(=O)N[C@@H](CCCNC(=N)N)C(=O)N[C@@H](Cc1ccccc1)C(N)=O)C(C)C)[C@@H](C)CC)[C@@H](C)CC)[C@@H](C)O)C(=O)O [Analog 52] (H-SRTHRHSMEIK([γGlu-Palmitoyl])TPDINPAWYASRGIRPVGRF-NH2)
- Food intake in mice % of saline-treated group (C57BL/6 mice): 10%
- Food intake in rats (Wistar rats): significantly reduced
- Food intake in free fed ZDF diabetic rats (ZDF diabetic rats; 5 mg/kg IP twice daily, vs vehicle): significantly lowered
- Cumulative food intake Day 1 (ZDF diabetic rats; 1 mg/kg IP twice daily): 43.0 ± 2.2 g
- Cumulative food intake Day 1-7 (ZDF diabetic rats; 1 mg/kg IP twice daily): 306.9 ± 11.8 g
- Cumulative food intake Day 1-14 (ZDF diabetic rats; 1 mg/kg IP twice daily): 570.9 ± 17.1 g
- Cumulative food intake Day 1-21 (ZDF diabetic rats; 1 mg/kg IP twice daily): 811.5 ± 23.6 g
- Cumulative food intake Day 1 (ZDF diabetic rats; 5 mg/kg IP twice daily): 42.4 ± 2.1 g
- Cumulative food intake Day 1-7 (ZDF diabetic rats; 5 mg/kg IP twice daily): 287.8 ± 12.5* g
- Cumulative food intake Day 1-14 (ZDF diabetic rats; 5 mg/kg IP twice daily): 559.0 ± 21.0* g
- Cumulative food intake Day 1-21 (ZDF diabetic rats; 5 mg/kg IP twice daily): 814.8 ± 26.1 g
- Cholesterol (ZDF diabetic rats; day 21, 1 mg/kg IP twice daily): 3.71 ± 0.16 mmol/L
- Insulin (ZDF diabetic rats; day 21, 1 mg/kg IP twice daily): 268.94 ± 43.40 pmol/L
- Leptin (ZDF diabetic rats; day 21, 1 mg/kg IP twice daily): 16336 ± 1466 pg/mL
- Cholesterol (ZDF diabetic rats; day 21, 5 mg/kg IP twice daily): 3.19 ± 0.16 mmol/L
- Insulin (ZDF diabetic rats; day 21, 5 mg/kg IP twice daily): 183.35 ± 37.49 pmol/L
- Leptin (ZDF diabetic rats; day 21, 5 mg/kg IP twice daily): 11372 ± 427 pg/mL
- Ki [1]: 5.95 ± 0.72 nM
- % of PrRP31, GPR10 human receptor transfected in CHO cells ([1]; affinity relative to PrRP31): 65%
- Ki (rat PrRP receptor): 4.23 ± 2.11 nM
- % of PrRP31, RC-4B/C rat pituitary cells (rat PrRP receptor; affinity relative to PrRP31): 57%

Compound: PrRP31: prolactin-releasing peptide composed of 31 amino acids, positive control; rat or human form not stated (SRAHQHSMETRTPDINPAWYTGRGIRPVGRF-NH2; ends and bridges not checked)
- Initiation of MAPK/ERK1/2 signaling [2]: shown to initiate MAPK/ERK1/2 signaling
